In ChEMBL document CHEMBL5244253, “Recent research progress on natural small molecule bibenzyls and its derivatives in Dendrobium species” (Eur J Med Chem, 2020):

How the values were obtained:
Format in all cases: functional
[1] = test system: RAW264.7; assay: Antiinflammatory activity in mouse RAW264.7 cells assessed as inhibition of LPS-induced NO production at 50 ug/ml measured after 24 hrs
[2] = test system: RAW264.7; assay: Antiinflammatory activity in mouse RAW264.7 cells assessed as inhibition of H2O2-induced intracellular ROS production at 50 ug/ml measured after 24 hrs by DCFH-DA staining based fluorescence assay
[3] = test system: RAW264.7; assay: Antiinflammatory activity in mouse RAW264.7 cells assessed as inhibition of LPS-induced TNFalpha secretion at 50 ug/ml measured after 24 hrs

**Q.** What does the source list for COc1cc(CC2c3cc(O)c(O)c(OC)c3Oc3cc(O)c4c(c32)CCc2cc(O)ccc2-4)ccc1O (stereo not drawn)?
**A.** inhibition at 50 µg/mL [1]: 65%; inhibition at 50 µg/mL [2]: 65%; inhibition at 50 µg/mL [3]: 70%
